Measurements: patent US10954252B1, “Inhibitors of human immunodeficiency virus replication” (ViiV HEALTHCARE UK (NO.5) LIMITED, priority 2017, dated 2021)
pEC50: −log10 of the molar value.

Tests used:
[1] = test system: recombinant NL4-3 virus (nef section replaced with Renilla luciferase gene) in MT-2 cells; assay: HIV cell culture assay (antiviral activity, luciferase readout); assay type: cell-based; details: MT-2 cells infected for 4-5 days with recombinant NL4-3 luciferase virus
How it was run: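 Serially diluted compounds were present throughout a 4-5 day infection of MT-2 cells by recombinant NL4-3 whose nef region partly encodes Renilla luciferase. Antiviral activity was taken from live-cell luciferase signal, with the 50% effective concentration fitted by the exponential median effect equation.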

[2] = Compound cytotoxicity, XTT-based colorimetric assay; assay type: cell-based; details: human, uninfected MT2 cells
How it was run: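 XTT colorimetric read-out on day 4 gave CC50 values, using MT2 cells left uninfected but otherwise handled as in the antiviral assay.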

Row | Structure (SMILES) | pEC50 ([1]; Renilla, NL43, Table 1a) | CC50 at 4 days ([2]; Table 1a, day 4, XTT) [nM] | pEC50 ([1]; Renilla, NL43, Table 1) | CC50 at 4 days ([2]; Table 1, day 4, XTT) [nM] | pEC50 ([1]; Table 1)
1 | N#Cc1cnc2nc([C@H](Cc3cc(F)cc(F)c3)NC(=O)Cn3nc(C(F)F)c4c3C(F)(F)[C@@H]3C[C@H]43)n(-c3ccc(C4CC4)cc3)c(=O)c2c1 [Example 39, N-[(1S)-1-[6-cyano-3-(4-cyclopropylphenyl)-4-oxo-3H,4H-pyrido[2,3-d]pyrimidin-2-yl]-2-(3,5-difluorophenyl)ethyl]-2-[(2S,4R)-9-(difluoromethyl)-5,5-difluoro-7,8-diazatricyclo[4.3.0.0^2,4]nona-1(6),8-dien-7-yl]acetamide] | 8.42 | 2000 |  |  | 
2 | Cn1nc(NS(C)(=O)=O)c2c(Cl)ccc(-n3c(C(Cc4cc(F)cc(F)c4)NC(=O)Cn4nc(C(F)F)c5c4C(F)(F)[C@@H]4C[C@H]54)nc4cccc(Cl)c4c3=O)c21 (mixture of isomers) [Example 22.1, N—((S)-1-(5-chloro-3-(4-chloro-1-methyl-3-(methylsulfonamido)-1H-indazol-7-yl)-4-oxo-3,4-dihydroquinazolin-2-yl)-2-(3,5-difluorophenyl)ethyl)-2-((3bS,4aR)-3-(difluoromethyl)-5,5-difluoro-3b,4,4a,5-tetrahydro-1H-cyclopropa[3,4]cyclopenta[1,2-c]pyrazol-1-yl)acetamide] |  |  | 4.50 | > 1000 | 
3 | COc1ccc2c(=O)n(-c3ccc(Cl)c4c(NS(C)(=O)=O)nn(C)c34)c(C(Cc3cc(F)cc(F)c3)NC(=O)Cn3nc(C(F)F)c4c3C(F)(F)[C@@H]3C[C@H]43)nc2c1F (stereo partly shown) [Example 75] | 6.96 | > 1000 |  |  | 
4 | O=C(Cn1nc(C(F)F)c2c1C(F)(F)[C@@H]1C[C@H]21)N[C@@H](Cc1cc(F)cc(F)c1)c1nc2cn[nH]c2cc1-c1cccc(C(=O)O)c1 [Example 10.10, 3-(5-((S)-1-(2-((3bS,4aR)-3-(difluoromethyl)-5,5-difluoro-3b,4,4a,5-tetrahydro-1H-cyclopropa[3,4]cyclopenta[1,2-c]pyrazol-1-yl)acetamido)-2-(3,5-difluorophenyl)ethyl)-1H-pyrazolo[4,3-b]pyridin-6-yl)benzoic acid] |  |  | 6.85 | > 10000 | 
5 | Cn1nc(NS(C)(=O)=O)c2c(Cl)ccc(-n3c([C@H](Cc4cc(F)cc(F)c4)NC(=O)Cn4ccc(N)n4)nc4ncccc4c3=O)c21 (single isomer, unassigned) [Example 50.2] | 7.49 | > 1000 |  |  | 
6 | COc1ccc2c(=O)n(-c3ccc(Cl)c4c(NS(C)(=O)=O)nn(C)c34)c([C@H](Cc3cc(F)cc(F)c3)NC(=O)Cn3nc(C(F)F)c4c3C(F)(F)[C@@H]3C[C@H]43)nc2c1 (single isomer, unassigned) [Example 17] |  |  | 7.21 | > 10000 | 
7 | Cn1nc(NS(C)(=O)=O)c2c(Cl)ccc(-n3c([C@H](Cc4cc(F)cc(F)c4)NC(=O)Cn4ccc(C5CC5)n4)nc4cc(C(C)(C)S(C)(=O)=O)ccc4c3=O)c21 (single isomer, unassigned) [Example 212] | 9.20 | > 1000 |  |  | 
8 | O=C(Cc1c[nH]c2ccc(O)cc12)N[C@@H](Cc1cc(F)cc(F)c1)c1nc2ccccc2c(=O)n1-c1ccc(S(=O)(=O)N2CCOCC2)cc1 [Example 164, (S)—N-(2-(3,5-difluorophenyl)-1-(3-(4-(morpholinosulfonyl)phenyl)-4-oxo-3,4-dihydroquinazolin-2-yl)ethyl)-2-(5-hydroxy-1H-indol-3-yl)acetamideacetamide] | 8.93 | > 10000 |  |  | 
9 | Cn1nc(NS(C)(=O)=O)c2c(Cl)ccc(-n3c([C@H](Cc4cc(F)cc(F)c4)NC(=O)Cn4nc(C(F)(F)F)c5c4CCC5)nc4ncccc4c3=O)c21 [Example 52, N-[(1S)-1-[3-(4-chloro-3-methanesulfonamido-1-methyl-1H-indazol-7-yl)-4-oxo-3H,4H-pyrido[2,3-d]pyrimidin-2-yl]-2-(3,5-difluorophenyl)ethyl]-2-[3-(trifluoromethyl)-1H,4H,5H,6H-cyclopenta[c]pyrazol-1-yl]acetamide] | 10.41 | > 1000 |  |  | 
10 | Cc1ccc(C)c2c(=O)n(-c3ccc(Cl)c4c(NS(C)(=O)=O)nn(C)c34)c(C(Cc3cc(F)cc(F)c3)NC(=O)Cn3nc(C(F)F)c4c3C(F)(F)[C@@H]3C[C@H]43)nc12 (mixture of isomers) [Example 67] | 6.74 | > 1000 |  |  | 
11 | COc1ccc2c(=O)n(-c3ccc(Cl)c4c(NS(=O)(=O)C5CC5)nn(CC(F)F)c34)c([C@H](Cc3cc(F)cc(F)c3)NC(=O)Cn3nc(C(F)F)c4c3C(F)(F)[C@@H]3C[C@H]43)nc2c1 (single isomer, unassigned) [Example 192] | 10.40 | > 1000 |  |  | 
12 | O=C(Cn1nc(C(F)F)c2c1C(F)(F)[C@@H]1C[C@H]21)NC(Cc1cc(F)cc(F)c1)c1nc2cc[nH]c2cc1-c1ccc2c(c1)C(=O)NC2 (stereo partly drawn) [Example 61, 2-((3bS,4aR)-3-(difluoromethyl)-5,5-difluoro-3b,4,4a,5-tetrahydro-1H-cyclopropa[3,4]cyclopenta[1,2-c]pyrazol-1-yl)-N-(2-(3,5-difluorophenyl)-1-(6-(3-oxoisoindolin-5-yl)-1H-pyrrolo[3,2-b]pyridin-5-yl)ethyl)acetamide] | 8.35 | > 10000 |  |  | 
13 | CS(=O)(=O)Nc1nn(CC(F)F)c2c(-c3cc4[nH]ncc4nc3[C@H](Cc3cc(F)cc(F)c3)NC(=O)Cn3nc(C(F)F)c4c3C(F)(F)[C@@H]3C[C@H]43)ccc(Cl)c12 (single isomer, unassigned) [Example 92] | 9.79 | > 10000 |  |  | 
14 | O=C(Cn1nc(C(F)F)c2c1C(F)(F)[C@@H]1C[C@H]21)N[C@@H](Cc1cc(F)cc(F)c1)c1nc2cn[nH]c2cc1-c1ccc2c(c1)C(=O)NC2 [Example 10.14, 2-((3bS,4aR)-3-(difluoromethyl)-5,5-difluoro-3b,4,4a,5-tetrahydro-1H-cyclopropa[3,4]cyclopenta[1,2-c]pyrazol-1-yl)-N—((S)-2-(3,5-difluorophenyl)-1-(6-(3-oxoisoindolin-5-yl)-1H-pyrazolo[4,3-b]pyridin-5-yl)ethyl)acetamide] |  |  | 8.60 | > 10000 | 
15 | Cn1nc(NS(C)(=O)=O)c2c(Cl)ccc(-n3c([C@H](Cc4cc(F)cc(F)c4)NC(=O)Cc4c[nH]c5ccc(O)cc45)nc4ncccc4c3=O)c21 [Example 53, N-[(1S)-1-[3-(4-chloro-3-methanesulfonamido-1-methyl-1H-indazol-7-yl)-4-oxo-3H,4H-pyrido[2,3-d]pyrimidin-2-yl]-2-(3,5-difluorophenyl)ethyl]-2-(5-hydroxy-1H-indol-3-yl)acetamide] | 8.24 | > 1000 |  |  | 
16 | COc1ccc(-n2c([C@H](Cc3cc(F)cc(F)c3)NC(=O)Cn3nc(C(F)F)c4c3C(F)(F)[C@@H]3C[C@H]43)nc3ncccc3c2=O)cc1 [Example 9.1, 2-((3bS,4aR)-3-(difluoromethyl)-5,5-difluoro-3b,4,4a,5-tetrahydro-1H-cyclopropa[3,4]cyclopenta[1,2-c]pyrazol-1-yl)-N—((S)-2-(3,5-difluorophenyl)-1-(3-(4-methoxyphenyl)-4-oxo-3,4-dihydropyrido[2,3-d]pyrimidin-2-yl)ethyl)acetamide] |  |  | 8.21 | 8100 | 
17 | Cn1nc(NS(C)(=O)=O)c2c(Cl)ccc(-c3cc4ccccc4nc3C(Cc3cc(F)cc(F)c3)NC(=O)Cn3nc(C(F)F)c4c3C(F)(F)[C@@H]3C[C@H]43)c21 (single isomer, unassigned) [Example 8.1] |  |  |  | > 10000 | 9.70
18 | O=C(Cn1nc(C(F)F)c2c1C(F)(F)[C@@H]1C[C@H]21)N[C@@H](Cc1cc(F)cc(F)c1)c1nc2ncccc2c(=O)n1-c1ccc(OC(F)F)cc1 [Example 30, N-[(1S)-1-{3-[4-(difluoromethoxy)phenyl]-4-oxo-3H,4H-pyrido[2,3-d]pyrimidin-2-yl}-2-(3,5-difluorophenyl)ethyl]-2-[(2S,4R)-9-(difluoromethyl)-5,5-difluoro-7,8-diazatricyclo[4.3.0.0^2,4]nona-1(6),8-dien-7-yl]acetamide] | 8.30 | 3160 |  |  | 
19 | O=C(Cn1nc(C(F)F)c2c1C(F)(F)[C@@H]1C[C@H]21)N[C@@H](Cc1cc(F)cc(F)c1)c1nc2ncccc2c(=O)n1-c1ccc(S(=O)(=O)N2CCOCC2)cc1 [Example 10.38] |  |  | 9.69 | > 10000 | 
20 | CN(c1nn(C)c2c(-c3cc4c(ccn4C)nc3[C@H](Cc3cc(F)cc(F)c3)NC(=O)Cn3nc(C(F)F)c4c3C(F)(F)[C@@H]3C[C@H]43)ccc(Cl)c12)S(C)(=O)=O (single isomer, unassigned) [Example 64] | 8.40 | > 10000 |  |  | 
21 | CC(C)c1ccc(-n2c([C@H](Cc3cc(F)cc(F)c3)NC(=O)Cc3c[nH]c4ccc(O)cc34)nc3cc(C#N)ccc3c2=O)cn1 [Example 162, (S)—N-(1-(7-cyano-3-(6-isopropylpyridin-3-yl)-4-oxo-3,4-dihydroquinazolin-2-yl)-2-(3,5-difluorophenyl)ethyl)-2-(5-hydroxy-1H-indol-3-yl)acetamide] | 8.18 | > 10000 |  |  | 
22 | Cn1nc(NS(C)(=O)=O)c2c(Cl)ccc(-n3c([C@H](Cc4cc(F)cc(F)c4)NC(=O)Cn4nc(C(F)F)c5c4C(F)(F)[C@@H]4C[C@H]54)nc4cc(C(C)(F)F)ccc4c3=O)c21 (single isomer, unassigned) [Example 196] | 10.09 | > 1000 |  |  | 
23 | Cn1nc(NS(C)(=O)=O)c2c(Cl)ccc(-n3c([C@H](Cc4cc(F)cc(F)c4)NC(=O)Cn4nc(C(F)F)c5c4C(F)(F)[C@@H]4C[C@H]54)nc4cccc(Cl)c4c3=O)c21 (single isomer, unassigned) [Example 22.2] |  |  | 6.89 | > 1000 | 
